Like-named read-outs stand apart in the source and are kept apart here.
Columns and labels:
[1] = Toxicokinetics and 7-day toxicity after oral administration of CMX157 to rats; format: in vivo; conditions: rat plasma
[2] = tested on: HIV-1IIIB; assay: TCID50 determination of drug-treated HIV-1IIIB; format: cell-based; parameters: TCID50, XTT Endpoint / TCID50, RT Endpoint / TCID50, P24 Endpoint: unit not given here
[3] = tested on: HIV; assay: microbe, parasite or virus in culture; format: cell-based; conditions: for IC50: read-out: IC50
[4] = virus treated 2 hours with 125 nM drug
[5] = virus treated 2 hours with 250 nM drug
[6] = virus treated 2 hours with 500 nM drug
[7] = virus treated 2 hours with 1000 nM drug
[8] = PANEL 40, M41L + L210W + T215Y + M184V
[9] = PANEL 41, M41L + L210W + T215Y + M184V
[10] = PANEL 44, D67N + K70R + T215F + K219E + M184V

Compound: C[C@H](Cn1cnc2c(N)ncnc21)OCP(=O)(O)O [TFV, (R)-9-(2-phosphonylmethoxypropyl)adenine]
- AUC0-24 ([1]; oral CMX157 10 mg/kg, day 1): 510.8 ng·h/mL
- AUC0-∞ ([1]; oral CMX157 10 mg/kg, day 1): 775.2 ng·h/mL
- Cmax ([1]; oral CMX157 10 mg/kg, day 1): 55.35 ng/mL
- Tmax ([1]; oral CMX157 10 mg/kg, day 1): 2.0 h
- t1/2elim ([1]; oral CMX157 10 mg/kg, day 1): 10.9 h
- AUC0-24 ([1]; oral CMX157 10 mg/kg, day 7): 964.7 ng·h/mL
- AUC0-∞ ([1]; oral CMX157 10 mg/kg, day 7): 1,226.9 ng · h/ml
- Cmax ([1]; oral CMX157 10 mg/kg, day 7): 49.55 ng/mL
- Tmax ([1]; oral CMX157 10 mg/kg, day 7): 2.4 h
- t1/2elim ([1]; oral CMX157 10 mg/kg, day 7): 9.2 h
- AUC0-24 ([1]; oral CMX157 30 mg/kg, day 1): 1,456.1 ng · h/ml
- AUC0-∞ ([1]; oral CMX157 30 mg/kg, day 1): 1,808.1 ng · h/ml
- Cmax ([1]; oral CMX157 30 mg/kg, day 1): 109.10 ng/mL
- Tmax ([1]; oral CMX157 30 mg/kg, day 1): 4.0 h
- t1/2elim ([1]; oral CMX157 30 mg/kg, day 1): 10.1 h
- AUC0-24 ([1]; oral CMX157 30 mg/kg, day 7): 2,363.4 ng · h/ml
- AUC0-∞ ([1]; oral CMX157 30 mg/kg, day 7): 2,790.5 ng · h/ml
- Cmax ([1]; oral CMX157 30 mg/kg, day 7): 149.25 ng/mL
- Tmax ([1]; oral CMX157 30 mg/kg, day 7): 4.0 h
- t1/2elim ([1]; oral CMX157 30 mg/kg, day 7): 7.6 h
- AUC0-24 ([1]; oral CMX157 100 mg/kg, day 1): 3,039.3 ng · h/ml
- AUC0-∞ ([1]; oral CMX157 100 mg/kg, day 1): 3,639.5 ng · h/ml
- Cmax ([1]; oral CMX157 100 mg/kg, day 1): 181.40 ng/mL
- Tmax ([1]; oral CMX157 100 mg/kg, day 1): 12.0 h
- t1/2elim ([1]; oral CMX157 100 mg/kg, day 1): 7.2 h
- AUC0-24 ([1]; oral CMX157 100 mg/kg, day 7): 5,715.4 ng · h/ml
- AUC0-∞ ([1]; oral CMX157 100 mg/kg, day 7): 7,373.4 ng · h/ml
- Cmax ([1]; oral CMX157 100 mg/kg, day 7): 322.00 ng/mL
- Tmax ([1]; oral CMX157 100 mg/kg, day 7): 12.0 h
- t1/2elim ([1]; oral CMX157 100 mg/kg, day 7): 9.0 h
- effect on viral replication ([2]; up to 1000 nM, 2 hours): no discernible effect
- Fold Decrease From VC, P24 Endpoint [2, 4]: (0) Fold
- Fold Decrease From VC, RT Endpoint [2, 4]: (1.1) Fold
- Fold Decrease From VC, XTT Endpoint [2, 4]: (1.1) Fold
- TCID50, P24 Endpoint [2, 4]: 43056
- TCID50, RT Endpoint [2, 4]: 72449
- TCID50, XTT Endpoint [2, 4]: 4027
- Fold Decrease From VC, P24 Endpoint [2, 5]: (0) Fold
- Fold Decrease From VC, RT Endpoint [2, 5]: (1.1) Fold
- Fold Decrease From VC, XTT Endpoint [2, 5]: (0) Fold
- TCID50, P24 Endpoint [2, 5]: 36227
- TCID50, RT Endpoint [2, 5]: 72449
- TCID50, XTT Endpoint [2, 5]: 4529
- Fold Decrease From VC, P24 Endpoint [2, 6]: (0) Fold
- Fold Decrease From VC, RT Endpoint [2, 6]: (0) Fold
- Fold Decrease From VC, XTT Endpoint [2, 6]: (0) Fold
- TCID50, P24 Endpoint [2, 6]: 37328
- TCID50, RT Endpoint [2, 6]: 81289
- TCID50, XTT Endpoint [2, 6]: 4529
- Fold Decrease From VC, P24 Endpoint [2, 7]: (0) Fold
- Fold Decrease From VC, RT Endpoint [2, 7]: (1.3) Fold
- Fold Decrease From VC, XTT Endpoint [2, 7]: (0) Fold
- TCID50, P24 Endpoint [2, 7]: 36227
- TCID50, RT Endpoint [2, 7]: 64570
- TCID50, XTT Endpoint [2, 7]: 4529
- IC50 Fold Change ([3]; PANEL 1, WT): 0.79
- IC50 ([3]; PANEL 1, WT): 613 nM
- IC50 Fold Change ([3]; PANEL 2, WT): 0.85
- IC50 ([3]; PANEL 2, WT): 652 nM
- IC50 Fold Change ([3]; PANEL 3, 6 TAMs, no 184): 3.47
- IC50 ([3]; PANEL 3, 6 TAMs, no 184): 2670 nM
- IC50 Fold Change ([3]; PANEL 6, 6 TAMs + 184): 2.16
- IC50 ([3]; PANEL 6, 6 TAMs + 184): 1670 nM
- IC50 Fold Change ([3]; PANEL 7, 184V): 0.69
- IC50 ([3]; PANEL 7, 184V): 534 nM
- IC50 Fold Change ([3]; PANEL 9, 69ins, no 184): 22.00
- IC50 ([3]; PANEL 9, 69ins, no 184): 17000 nM
- IC50 Fold Change ([3]; PANEL 12, 69ins + 184): 4.72
- IC50 ([3]; PANEL 12, 69ins + 184): 3640 nM
- IC50 Fold Change ([3]; PANEL 14, 65R, no 184): 1.71
- IC50 ([3]; PANEL 14, 65R, no 184): 1320 nM
- IC50 Fold Change ([3]; PANEL 15, 65R + 184V): 1.22
- IC50 ([3]; PANEL 15, 65R + 184V): 940 nM
- IC50 Fold Change ([3]; PANEL 17, L74V): 0.62
- IC50 ([3]; PANEL 17, L74V): 476 nM
- IC50 Fold Change ([3]; PANEL 19, L74V + M184V): 0.29
- IC50 ([3]; PANEL 19, L74V + M184V): 227 nM
- IC50 Fold Change ([3]; PANEL 26, 151M, no 184): 2.26
- IC50 ([3]; PANEL 26, 151M, no 184): 1740 nM
- IC50 Fold Change ([3]; PANEL 28, 151M + 184): 1.43
- IC50 ([3]; PANEL 28, 151M + 184): 1100 nM
- IC50 Fold Change ([3]; PANEL 29, L74V − SDM): 0.69
- IC50 ([3]; PANEL 29, L74V − SDM): 535 nM
- IC50 Fold Change ([3]; PANEL 30, M184V − SDM): 0.54
- IC50 ([3]; PANEL 30, M184V − SDM): 413 nM
- IC50 Fold Change ([3]; PANEL 31, K65R − SDM): 2.01
- IC50 ([3]; PANEL 31, K65R − SDM): 1550 nM
- IC50 Fold Change ([3]; PANEL 33, T215Y): 2.39
- IC50 ([3]; PANEL 33, T215Y): 1840 nM
- IC50 Fold Change ([3]; PANEL 34, T215Y + M184V): 0.81
- IC50 ([3]; PANEL 34, T215Y + M184V): 624 nM
- IC50 Fold Change ([3]; PANEL 35, M41L + T215Y): 1.84
- IC50 ([3]; PANEL 35, M41L + T215Y): 1420 nM
- IC50 Fold Change ([3]; PANEL 37, M41L + T215Y + M184V): 1.34
- IC50 ([3]; PANEL 37, M41L + T215Y + M184V): 1030 nM
- IC50 Fold Change ([3]; PANEL 38, M41L + L210W + T215Y): 2.80
- IC50 ([3]; PANEL 38, M41L + L210W + T215Y): 2160 nM
- IC50 Fold Change ([3]; PANEL 39, M41L + L210W + T215Y): 3.01
- IC50 ([3]; PANEL 39, M41L + L210W + T215Y): 2320 nM
- IC50 Fold Change [3, 8]: 0.97
- IC50 [3, 8]: 751 nM
- IC50 Fold Change [3, 9]: 1.02
- IC50 [3, 9]: 789 nM
- IC50 Fold Change ([3]; PANEL 42, D67N + K70R): 2.56
- IC50 ([3]; PANEL 42, D67N + K70R): 1970 nM
- IC50 Fold Change [3, 10]: 0.91
- IC50 [3, 10]: 703 nM
- IC50 Fold Change ([3]; PANEL 45, L210W + T215Y): 1.34
- IC50 ([3]; PANEL 45, L210W + T215Y): 1030 nM
- IC50 Fold Change ([3]; PANEL 46, D67N + K70E): 0.96
- IC50 ([3]; PANEL 46, D67N + K70E): 738 nM
- IC50 Fold Change ([3]; PANEL 47, D67N + K70E + M184V): 0.64
- IC50 ([3]; PANEL 47, D67N + K70E + M184V): 495 nM
- IC50 Fold Change ([3]; PANEL 48, K70E + M184V): 0.61
- IC50 ([3]; PANEL 48, K70E + M184V): 472 nM
